Source: ChEMBL document CHEMBL2069296, “A novel series of G-quadruplex ligands with selectivity for HIF-expressing osteosarcoma and renal cancer cell lines” (Bioorg Med Chem Lett, 2012)
Active and inactive are the calls of the source. The rule behind the calls is not given here.

Tests used:
HOS-TE85 = assay: Antiproliferative activity against human MNNG-HOS cells after 96 hrs by SRB assay; type: functional, cell-based; settings: HOS-TE85, 96 h
U2OS = assay: Antiproliferative activity against human U2OS cells after 96 hrs by SRB assay; type: functional, cell-based
SAOS-2 = assay: Antiproliferative activity against human Saos2 cells after 96 hrs by SRB assay; type: functional, cell-based; settings: SAOS-2, 96 h
OST = assay: Antiproliferative activity against human OST cells after 96 hrs by SRB assay; type: functional, cell-based
[1] = Antiproliferative activity against human TC71 cells after 96 hrs by SRB assay; type: functional, cell-based; settings: TC-71, 96 h
[2] = Antiproliferative activity against human TC32 cells after 96 hrs by SRB assay; type: functional, cell-based; settings: TC-32, 96 h
MCF7 = assay: Antiproliferative activity against human MCF7 cells after 96 hrs by SRB assay; type: functional, cell-based; settings: MCF7, 96 h
A549 = assay: Antiproliferative activity against human A549 cells after 96 hrs by SRB assay; type: functional, cell-based; settings: A549, 96 h
MIA PaCa-2 = assay: Antiproliferative activity against human MIAPaCa2 cells after 96 hrs by SRB assay; type: functional, cell-based; settings: MIA PaCa-2, 96 h
PANC-1 = assay: Antiproliferative activity against human PANC1 cells after 96 hrs by SRB assay; type: functional, cell-based; settings: PANC-1, 96 h
PC-3 = assay: Antiproliferative activity against human PC3 cells after 96 hrs by SRB assay; type: functional, cell-based; settings: PC-3, 96 h
[3] = Antiproliferative activity against human 786-O cells after 96 hrs by SRB assay; type: functional, cell-based; settings: 786-0, 96 h
A498 = assay: Antiproliferative activity against human A498 cells after 96 hrs by SRB assay; type: functional, cell-based; settings: A498, 96 h
[4] = Antiproliferative activity against human RCC4 cells after 96 hrs by SRB assay; type: functional, cell-based; settings: RCC4, 96 h
[5] = Antiproliferative activity against human RCC4/VHL cells after 96 hrs by SRB assay; type: functional, cell-based
[6] = Antiproliferative activity against human TC135 cells after 96 hrs by SRB assay; type: functional, cell-based; settings: TC135, 96 h
WI-38 = assay: Cytotoxicity against human WI38 after 96 hrs by SRB assay; type: cell-based; settings: WI-38, 96 h
HOS = assay: Antiproliferative activity against human HOS cells after 96 hrs by SRB assay; type: functional, cell-based
MG-63 = assay: Antiproliferative activity against human MG63 cells after 96 hrs by SRB assay; type: functional, cell-based; settings: MG-63, 96 h
HPAC = assay: Antiproliferative activity against human HPAC cells after 96 hrs by SRB assay; type: functional, cell-based
Nucleic Acid [7] = assay: Binding affinity to HIF1alpha DNA by surface plasmon resonance assay; type: nucleic-acid assay
Nucleic Acid [8] = assay: Binding affinity to HIF2alpha DNA by surface plasmon resonance assay; type: nucleic-acid assay
Nucleic Acid [9] = assay: Binding affinity to 5'-GGGGCGGGCACGGGGCGGG-3' DNA by surface plasmon resonance; type: nucleic-acid assay

IC50 (U2OS) [µM] | IC50 (MCF7) [µM] | IC50 (A549) [µM] | IC50 (MIA PaCa-2) [µM] | IC50 (PANC-1) [µM] | IC50 (PC-3) [µM] | SMILES | IC50 (HOS-TE85) [nM] | IC50 (SAOS-2) [nM] | IC50 (OST) [nM] | IC50 [1] [µM] | IC50 [2] [nM] | IC50 [3] [µM] | IC50 (A498) [µM] | IC50 [4] [nM] | IC50 [5] [nM] | IC50 [6] [nM] | IC50 (WI-38) [µM] | IC50 (HOS) [µM] | IC50 (MG-63) [µM] | IC50 (HPAC) [µM] | further results
7.8 | 21 | 29 | 17.5 | 7.4 | 7.8 | CCN(CC)CCC(=O)Nc1cccc(-n2cc(-c3ccc4ccc(-c5cn(-c6cccc(NC(=O)CCN(CC)CC)c6)nn5)cc4c3)nn2)c1 | 3100 | 2800 | 2100 | 28 | 2500 | 9.8 | 9.9 | 1600 | 2700 | 2600 | 10.6 | – | – | – | –
5.1 | 9.2 | 7.6 | 12.5 | 8 | 8.2 | CCN(CC)CCC(=O)Nc1ccc(-n2cc(-c3ccc4ccc(-c5cn(-c6ccc(NC(=O)CCN(CC)CC)cc6)nn5)cc4c3)nn2)cc1 | 2800 | 2500 | 1900 | 7.5 | 2100 | 5.6 | 6.9 | 1900 | 2400 | 2200 | 7.4 | 5.2 | 7 | 6.9 | –
13 | 30 | 76 | 11 | 7.1 | 9.4 | O=C(CCN1CCCC1)Nc1cccc(-n2cc(-c3ccc4ccc(-c5cn(-c6cccc(NC(=O)CCN7CCCC7)c6)nn5)cc4c3)nn2)c1 | 2900 | 2700 | 2200 | 8.9 | 1900 | 5.85 | 7.5 | 4200 | 6800 | 2500 | 18 | 7.1 | > 100 | 8 | –
22 | > 100 | > 100 | > 100 | > 100 | > 100 | O=C(CN1CCCCC1)Nc1cccc(-n2cc(-c3ccc4ccc(-c5cn(-c6cccc(NC(=O)CN7CCCCC7)c6)nn5)cc4c3)nn2)c1 | 23000 | 16000 | 37000 | 81 | 6600 | 17.5 | 19 | 2600 | 2700 | 14000 | > 10 | 47 | 90 | 96 | K (Nucleic Acid [7]): 0.81 ×10⁷ /M; K (Nucleic Acid [8]): 0.59 ×10⁷ /M; K (Nucleic Acid [9]): inactive
